Measurements taken from publication PMC9118553, “In Vivo Bioconcentration of 10 Anionic Surfactants in Rainbow Trout Explained by In Vitro Data on Partitioning and S9 Clearance” (Environmental Science & Technology, 2022).
Values joined by “and” are separate entries in the source; they are usually repeats but may differ in a detail not shown here. Equal entries are not always repeated.

Test system: rainbow trout
Assay: In vivo bioconcentration experiment with a mixture of anionic surfactants, flow-through aquaria, 10 °C, pH 7.8;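 for Uptake rate constant kU: L kg-1 h-1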
Details: for Log BCF: determined with measured concentrations in water; for Concentration in fish: individual fish; for diffusion coefficient (D) in the epithelial membrane of the gills: in vivo; for BCF (kinetic): kinetic BCF from measured concentrations in water
Method: The bioconcentration of a mixture of 10 anionic surfactants was measured in rainbow trout in water at pH 7.8. […] The experiment was conducted in flow-through aquaria with juvenile rainbow trout at 10 °C. Ethical approval for the experiments was obtained from Stockholms […] (decision 9967-2017). The fish, fish housing, fish handling, and procedure for introducing the mixture of […] chemicals were very similar to our previous study with cationic surfactants;[5] details are provided in Text S1. The experiment consisted of a 4-day exposure phase and a 7-day depuration phase. […] Water samples were collected and fish were sacrificed according to the schedule in Table S4. The water samples were collected just prior to the daily removal of feces from the aquarium. Triplicate samples were taken at each time point. […] The water/methanol mixture was analyzed using liquid chromatography-mass spectrometry (LC-MS)/MS as described below for fish. At each fish sampling, five fish were sacrificed. Following stunning and severance of the spinal cord, the whole fish were placed in a polyethylene bag, weighed, and immediately frozen at -20 °C. The weight of the individual fish at sacrifice was 24.0 ± 5.6 g. Three of the five fish from each time point were prioritized for analysis based on proximity to the median fish weight. Each fish was […] homogenized with an Ultra-turrax dispersing device. […] This mixture was homogenized in a bullet blender for 5 min and then placed in an ultrasound bath at 45 °C for 15 min. Following centrifugation for 15 min@3200 RCF, the supernatant was decanted and the extraction was repeated. The extracts were combined. For instrumental analysis, 5 μL of the fish extract or 60 μL of the water/methanol mixture (water samples) was separated on an Acquity UPLC BEH C18 column fitted with a BEH C18 pre-column and analyzed on a TSQ Quantiva triple quadrupole mass spectrometer. The mobile phase was methanol (10 mM ammonium acetate) and Milli-Q-filtered water (10 mM ammonium acetate) (see Table S5 for the liquid chromatography program). To avoid detergent blank peaks originating from cleaning mobile phase bottles, the methanol was prepared directly in the solvent bottle as delivered and Milli-Q was tapped into an empty methanol bottle. Furthermore, a guard column was fitted between the mobile phase and the autosampler to prevent background contamination from disturbing the analysis. All analytes were quantified against the BEHP internal standard, as it gave better reproducibility. […] The central goal of the analysis was to estimate kU and kT as well as the BCF (=kU/kT) from measurements of surfactant concentration in fish and water samples collected at different time points of the experiment. For the fish, only those time points were included for which CF(measured) was above the limit of quantitation (LOQ) in all three fish (data below the LOQ will have a positive bias; including them would result in a negative bias in kT). In this analysis, there exist two sources of uncertainty: first, uncertainty in the actual concentration in water CW at the time of sample collection and second, variability in the concentration in fish around the (expected) surfactant concentrations in fish assumed to follow model (1). We therefore set up a model in which we considered uncertainty in both water and fish measurements simultaneously by assuming a parametric model for the surfactant concentration in the water over time (either linear or quadratic) and accounted for the uncertainty in the corresponding parameters of the water model during the estimation of kU and kT. This was done in a joint Bayesian model that we estimated via Hamiltonian Monte Carlo. […]

[1] = determined using nominal concentrations in water
[2] = from measured concentrations in water, Bayesian estimate, 95% credible interval in brackets
[3] = 95% credible interval in brackets
[4] = measured concentrations in water, simpler estimation method (Text S3), 95% confidence intervals in brackets

| Compound | BCF [1] | Elimination rate constant kT [1] | Uptake rate constant kU [1] | Log BCF | Concentration in fish (elimination phase, 97 h) | Concentration in fish (elimination phase, 98 h) | Concentration in fish (elimination phase, 100 h) | Concentration in fish (elimination phase, 103 h) | Concentration in fish (elimination phase, 120 h) | Concentration in fish (elimination phase, 128 h) | Concentration in fish (elimination phase, 144 h) | Concentration in fish (elimination phase, 168 h) | Concentration in fish (elimination phase, 192 h) | Concentration in fish (elimination phase, 264 h) | Concentration in fish (exposure phase, 1 h) | Concentration in fish (exposure phase, 2 h) | Concentration in fish (exposure phase, 3 h) | Concentration in fish (exposure phase, 4 h) | Concentration in fish (exposure phase, 6 h) | Concentration in fish (exposure phase, 24 h) | other results |
| --- | --- | --- | --- | --- | --- | --- | --- | --- | --- | --- | --- | --- | --- | --- | --- | --- | --- | --- | --- | --- | --- |
| CCCCCCCCCCCCOCCOCCOCCOCCOS(=O)(=O)O [C12-EO4-SO4, dodecyltetraethoxysulfate] | 1.42 L kg-1 ww | 0.114 h⁻¹ | 0.162 L/kg/h | -0.05 L kg-1 ww | 35 ng g-1 ww and 26 ng g-1 ww and 27 ng g-1 ww | 17.6 ng g-1 ww and 19.9 ng g-1 ww and 15.8 ng g-1 ww | 35.9 ng g-1 ww and 14.4 ng g-1 ww and 21 ng g-1 ww | 11.6 ng g-1 ww and 16.1 ng g-1 ww and 15.1 ng g-1 ww | 7.0 ng g-1 ww and 8.6 ng g-1 ww and 3.1 ng g-1 ww | 5.5 ng g-1 ww and 7.5 ng g-1 ww and 4.5 ng g-1 ww | 4.7 ng g-1 ww and 5.3 ng g-1 ww and 4.5 ng g-1 ww | 4.1 ng g-1 ww and 2.7 ng g-1 ww and 1.8 ng g-1 ww | 1.6 ng g-1 ww and 3.6 ng g-1 ww and 1.8 ng g-1 ww | 3.3 ng g-1 ww and 2.4 ng g-1 ww and 1.5 ng g-1 ww | 4.3 ng g-1 ww and 6.7 ng g-1 ww and 6.6 ng g-1 ww | 6.7 ng g-1 ww and 8.9 ng g-1 ww and 6.4 ng g-1 ww | 12.1 ng g-1 ww and 10.4 ng g-1 ww and 10.6 ng g-1 ww | 14.5 ng g-1 ww and 16.2 ng g-1 ww and 14.2 ng g-1 ww | 23 ng g-1 ww and 18.6 ng g-1 ww and 13.5 ng g-1 ww | 24 ng g-1 ww and 34 ng g-1 ww and 23 ng g-1 ww | Concentration in fish (exposure phase, 48 h): 26 ng g-1 ww and 33 ng g-1 ww and 38 ng g-1 ww; Concentration in fish (exposure phase, 72 h): 30 ng g-1 ww and 39 ng g-1 ww and 35 ng g-1 ww; Concentration in fish (exposure phase, 96 h): 45 ng g-1 ww and 27 ng g-1 ww and 42 ng g-1 ww; Elimination rate constant kT [2]: 0.100 (0.083–0.120) h^–1; Uptake rate constant kU [2]: 0.090 (0.074–0.109) L kg^–1 ww h^–1; diffusion coefficient (D) in the epithelial membrane of the gills: 2.0 × 10^–8 m h^–1; BCF (kinetic) [3]: 0.89 (0.80–1.01) L kg^–1 ww; BCF [4]: 0.92 (29) L kg-1 ww; Elimination rate constant kT [4]: 0.098 (26) h-1; Uptake rate constant kU [4]: 0.090 (12) L kg-1 ww h-1 |
| CCCCCCCCCCCCCS(=O)(=O)O [C13SO3, tridecylsulfonate] | 3.9 L kg-1 ww | 0.065 h⁻¹ | 0.25 L/kg/h | 0.65 L kg-1 ww | 15.7 ng g-1 ww and 14.6 ng g-1 ww and 19.2 ng g-1 ww | 14.6 ng g-1 ww and 12.4 ng g-1 ww and 14.8 ng g-1 ww | 33 ng g-1 ww and 10.3 ng g-1 ww and 12.1 ng g-1 ww | 10.0 ng g-1 ww and 23 ng g-1 ww and 11.1 ng g-1 ww | 6.4 ng g-1 ww and 4.3 ng g-1 ww and 2.9 ng g-1 ww | 2.8 ng g-1 ww and 2.3 ng g-1 ww and 4.9 ng g-1 ww | 1.63 ng g-1 ww and 1.18 ng g-1 ww and 1.59 ng g-1 ww | 0.83 ng g-1 ww and 1.89 ng g-1 ww and 0.64 ng g-1 ww | 0.40 ng g-1 ww and 0.33 ng g-1 ww and 0.60 ng g-1 ww | 0.30 ng g-1 ww and 0.13 ng g-1 ww and 0.02 ng g-1 ww | 15.3 ng g-1 ww and 2.5 ng g-1 ww and 35 ng g-1 ww | 3.2 ng g-1 ww and 3.0 ng g-1 ww and 2.3 ng g-1 ww | 4.7 ng g-1 ww and 5.8 ng g-1 ww and 4.5 ng g-1 ww | 8.1 ng g-1 ww and 54 ng g-1 ww and 202 ng g-1 ww | 10.5 ng g-1 ww and 10.3 ng g-1 ww and 8.5 ng g-1 ww | 24 ng g-1 ww and 21 ng g-1 ww and 17.0 ng g-1 ww | Concentration in fish (exposure phase, 48 h): 19.4 ng g-1 ww and 20 ng g-1 ww and 17.1 ng g-1 ww; Concentration in fish (exposure phase, 72 h): 30 ng g-1 ww and 16.7 ng g-1 ww and 15.0 ng g-1 ww; Concentration in fish (exposure phase, 96 h): 22 ng g-1 ww and 19.7 ng g-1 ww and 28 ng g-1 ww; Elimination rate constant kT [2]: 0.057 (0.052–0.062) h^–1; Uptake rate constant kU [2]: 0.25 (0.22–0.29) L kg^–1 ww h^–1; diffusion coefficient (D) in the epithelial membrane of the gills: 3.5 × 10^–8 m h^–1; BCF (kinetic) [3]: 4.5 (4.1–5.0) L kg^–1 ww; BCF [4]: 4.3 (12) L kg-1 ww; Elimination rate constant kT [4]: 0.057 (7) h-1 |
| CCCCCCCCCCCCCOS(=O)(=O)O [C13SO4, tridecylsulfate] | 31 L kg-1 ww | 0.074 h⁻¹ | 2.29 L/kg/h | 1.53 L kg-1 ww | 99 ng g-1 ww and 120 ng g-1 ww and 148 ng g-1 ww | 111 ng g-1 ww and 104 ng g-1 ww and 80 ng g-1 ww | 104 ng g-1 ww and 78 ng g-1 ww and 80 ng g-1 ww | 58 ng g-1 ww and 80 ng g-1 ww and 82 ng g-1 ww | 32 ng g-1 ww and 40 ng g-1 ww and 25 ng g-1 ww | 21 ng g-1 ww (2×) and 29 ng g-1 ww | 14.4 ng g-1 ww and 11.1 ng g-1 ww and 13.5 ng g-1 ww | 12.9 ng g-1 ww and 6.4 ng g-1 ww and 7.3 ng g-1 ww | 4.0 ng g-1 ww and 4.7 ng g-1 ww and 3.9 ng g-1 ww | 3.8 ng g-1 ww and 2.1 ng g-1 ww and 1.7 ng g-1 ww | 34 ng g-1 ww and 28 ng g-1 ww and 54 ng g-1 ww | 40 ng g-1 ww and 42 ng g-1 ww and 27 ng g-1 ww | 61 ng g-1 ww and 67 ng g-1 ww and 60 ng g-1 ww | 88 ng g-1 ww and 108 ng g-1 ww and 187 ng g-1 ww | 139 ng g-1 ww and 132 ng g-1 ww and 97 ng g-1 ww | 255 ng g-1 ww (2×) and 188 ng g-1 ww | Concentration in fish (exposure phase, 48 h): 140 ng g-1 ww and 234 ng g-1 ww and 190 ng g-1 ww; Concentration in fish (exposure phase, 72 h): 201 ng g-1 ww and 154 ng g-1 ww and 128 ng g-1 ww; Concentration in fish (exposure phase, 96 h): 175 ng g-1 ww and 150 ng g-1 ww and 275 ng g-1 ww; Elimination rate constant kT [2]: 0.048 (0.043–0.053) h^–1; Uptake rate constant kU [2]: 1.62 (1.38–1.91) L kg^–1 ww h^–1; diffusion coefficient (D) in the epithelial membrane of the gills: 3.9 × 10^–8 m h^–1; BCF (kinetic) [3]: 34 (29–40) L kg^–1 ww; BCF [4]: 31 (16) L kg-1 ww; Elimination rate constant kT [4]: 0.053 (7) h-1; Uptake rate constant kU [4]: 1.64 (15) L kg-1 ww h-1; BCF (own values): 34 L kg^–1 |
